Reference: BindingDB's records for doi:10.1016/j.bmcl.2011.07.125 (Pfizer, 2011)

Experiment: Antagonist activity at H4R in human eosinophils assessed as inhibition of histamine-induced shape change by GAFS assay

CN[C@@H]1CCN(c2cc(NCC3CC3)nc(N)n2)C1
IC50: 650 pM
